Test results: ChEMBL document CHEMBL1152560, “Substituted 2-arylbenzothiazoles as kinase inhibitors: hit-to-lead optimization” (Bioorg Med Chem, 2009)

Columns and labels:
[1] = target: T1, Ephrin type-A receptor 3 (Homo sapiens) (UniProt P29320); test: Residual activity of EPHA3 at 1 uM by microplate scintillation counting
T1 sequence (whole entry): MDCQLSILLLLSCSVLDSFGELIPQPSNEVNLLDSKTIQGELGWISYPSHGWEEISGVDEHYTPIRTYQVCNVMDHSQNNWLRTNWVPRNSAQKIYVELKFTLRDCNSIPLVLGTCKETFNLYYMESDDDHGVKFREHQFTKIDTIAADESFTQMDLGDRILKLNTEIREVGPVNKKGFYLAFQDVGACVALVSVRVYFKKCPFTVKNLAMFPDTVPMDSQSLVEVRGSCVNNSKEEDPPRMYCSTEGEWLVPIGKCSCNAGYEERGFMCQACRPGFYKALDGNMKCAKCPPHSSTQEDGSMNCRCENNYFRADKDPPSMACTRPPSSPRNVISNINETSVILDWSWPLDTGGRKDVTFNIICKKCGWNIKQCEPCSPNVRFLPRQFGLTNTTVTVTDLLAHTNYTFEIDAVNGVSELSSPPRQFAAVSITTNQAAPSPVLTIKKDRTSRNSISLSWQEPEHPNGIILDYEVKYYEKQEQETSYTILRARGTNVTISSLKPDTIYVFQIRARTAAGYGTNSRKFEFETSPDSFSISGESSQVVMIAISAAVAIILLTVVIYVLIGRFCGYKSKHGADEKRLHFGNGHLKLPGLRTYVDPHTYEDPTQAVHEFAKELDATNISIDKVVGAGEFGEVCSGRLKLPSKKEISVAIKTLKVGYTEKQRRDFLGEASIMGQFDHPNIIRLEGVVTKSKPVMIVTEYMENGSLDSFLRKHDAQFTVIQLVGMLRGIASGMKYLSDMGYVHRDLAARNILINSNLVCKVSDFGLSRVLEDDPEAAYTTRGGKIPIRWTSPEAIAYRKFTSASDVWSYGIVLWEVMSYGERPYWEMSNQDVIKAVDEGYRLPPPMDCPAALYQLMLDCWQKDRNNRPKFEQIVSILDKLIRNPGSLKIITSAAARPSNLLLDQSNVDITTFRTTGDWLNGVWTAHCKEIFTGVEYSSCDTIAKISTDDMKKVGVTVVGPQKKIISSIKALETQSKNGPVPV

[2] = target: Serine/threonine-protein kinase 24 (Homo sapiens) (UniProt Q9Y6E0); test: Residual activity of MST3 at 0.1 uM by microplate scintillation counting
[3] = target: Serine/threonine-protein kinase MRCK beta (Homo sapiens) (UniProt Q9Y5S2); test: Residual activity of CDC42BPB at 10 uM by microplate scintillation counting
[4] = target: Dual specificity tyrosine-phosphorylation-regulated kinase 1A (Homo sapiens) (UniProt Q13627); test: Residual activity of DYRK1A at 0.1 uM by microplate scintillation counting
[5] = target: T2, Eukaryotic translation initiation factor 2-alpha kinase 3 (Homo sapiens) (UniProt Q9NZJ5); test: Residual activity of EIF2AK3 at 0.1 uM by microplate scintillation counting
T2 sequence (whole entry): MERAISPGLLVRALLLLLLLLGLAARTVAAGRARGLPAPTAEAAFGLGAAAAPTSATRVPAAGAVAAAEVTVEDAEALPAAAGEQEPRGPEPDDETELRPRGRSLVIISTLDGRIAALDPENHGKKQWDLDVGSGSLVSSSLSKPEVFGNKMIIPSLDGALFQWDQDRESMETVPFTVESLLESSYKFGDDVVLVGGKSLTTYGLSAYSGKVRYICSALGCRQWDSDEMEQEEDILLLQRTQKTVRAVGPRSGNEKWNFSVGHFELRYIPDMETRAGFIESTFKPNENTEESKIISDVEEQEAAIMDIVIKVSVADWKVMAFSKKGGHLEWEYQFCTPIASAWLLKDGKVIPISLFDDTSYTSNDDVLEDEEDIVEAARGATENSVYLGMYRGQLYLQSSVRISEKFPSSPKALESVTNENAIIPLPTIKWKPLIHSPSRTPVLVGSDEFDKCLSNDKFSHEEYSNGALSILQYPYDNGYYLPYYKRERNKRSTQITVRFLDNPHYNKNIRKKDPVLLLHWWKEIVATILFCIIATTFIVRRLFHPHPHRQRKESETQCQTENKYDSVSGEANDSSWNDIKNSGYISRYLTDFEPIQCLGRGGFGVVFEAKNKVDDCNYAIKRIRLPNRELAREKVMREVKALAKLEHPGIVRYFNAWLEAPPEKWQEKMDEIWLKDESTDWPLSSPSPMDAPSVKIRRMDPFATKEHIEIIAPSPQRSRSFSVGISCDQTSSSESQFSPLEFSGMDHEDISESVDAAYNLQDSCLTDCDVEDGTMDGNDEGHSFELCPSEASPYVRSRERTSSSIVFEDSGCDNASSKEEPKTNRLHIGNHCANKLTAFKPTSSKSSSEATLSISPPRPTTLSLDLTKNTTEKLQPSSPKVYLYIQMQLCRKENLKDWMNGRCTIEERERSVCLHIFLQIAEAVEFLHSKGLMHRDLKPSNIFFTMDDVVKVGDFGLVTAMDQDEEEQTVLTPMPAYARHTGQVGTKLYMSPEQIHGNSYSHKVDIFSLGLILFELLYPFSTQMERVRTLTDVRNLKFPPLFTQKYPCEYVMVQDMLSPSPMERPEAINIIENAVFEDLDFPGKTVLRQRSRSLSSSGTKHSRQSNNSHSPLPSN

[6] = target: T3, Protein kinase C zeta type (Homo sapiens) (UniProt Q05513); test: Residual activity of PKCzeta at 0.1 uM by microplate scintillation counting
T3 sequence (whole entry): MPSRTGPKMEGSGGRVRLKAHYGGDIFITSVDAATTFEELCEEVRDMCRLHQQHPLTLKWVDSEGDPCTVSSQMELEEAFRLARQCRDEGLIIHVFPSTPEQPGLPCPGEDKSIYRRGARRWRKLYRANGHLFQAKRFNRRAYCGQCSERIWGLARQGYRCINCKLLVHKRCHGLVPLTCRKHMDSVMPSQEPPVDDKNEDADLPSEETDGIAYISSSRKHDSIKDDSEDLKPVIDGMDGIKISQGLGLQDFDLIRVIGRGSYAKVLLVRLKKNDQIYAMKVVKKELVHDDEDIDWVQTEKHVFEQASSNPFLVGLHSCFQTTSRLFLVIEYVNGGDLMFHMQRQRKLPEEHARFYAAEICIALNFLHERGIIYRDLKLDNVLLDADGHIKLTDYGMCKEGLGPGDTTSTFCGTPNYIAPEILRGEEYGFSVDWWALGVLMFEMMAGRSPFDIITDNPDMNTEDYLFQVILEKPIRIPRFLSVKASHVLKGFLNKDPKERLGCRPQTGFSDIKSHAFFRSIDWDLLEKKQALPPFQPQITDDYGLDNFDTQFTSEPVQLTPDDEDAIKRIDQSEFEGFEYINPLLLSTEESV

[7] = target: Ribosomal protein S6 kinase alpha-1 (Homo sapiens) (UniProt Q15418); test: Residual activity of RPS6KA1 at 0.1 uM by microplate scintillation counting
[8] = target: Serine/threonine-protein kinase PLK2 (Homo sapiens) (UniProt Q9NYY3); test: Residual activity of SNK at 0.1 uM by microplate scintillation counting
Serine/threonine-protein kinase PLK2 (Homo sapiens), sequence (Q9NYY3 whole entry, looked up): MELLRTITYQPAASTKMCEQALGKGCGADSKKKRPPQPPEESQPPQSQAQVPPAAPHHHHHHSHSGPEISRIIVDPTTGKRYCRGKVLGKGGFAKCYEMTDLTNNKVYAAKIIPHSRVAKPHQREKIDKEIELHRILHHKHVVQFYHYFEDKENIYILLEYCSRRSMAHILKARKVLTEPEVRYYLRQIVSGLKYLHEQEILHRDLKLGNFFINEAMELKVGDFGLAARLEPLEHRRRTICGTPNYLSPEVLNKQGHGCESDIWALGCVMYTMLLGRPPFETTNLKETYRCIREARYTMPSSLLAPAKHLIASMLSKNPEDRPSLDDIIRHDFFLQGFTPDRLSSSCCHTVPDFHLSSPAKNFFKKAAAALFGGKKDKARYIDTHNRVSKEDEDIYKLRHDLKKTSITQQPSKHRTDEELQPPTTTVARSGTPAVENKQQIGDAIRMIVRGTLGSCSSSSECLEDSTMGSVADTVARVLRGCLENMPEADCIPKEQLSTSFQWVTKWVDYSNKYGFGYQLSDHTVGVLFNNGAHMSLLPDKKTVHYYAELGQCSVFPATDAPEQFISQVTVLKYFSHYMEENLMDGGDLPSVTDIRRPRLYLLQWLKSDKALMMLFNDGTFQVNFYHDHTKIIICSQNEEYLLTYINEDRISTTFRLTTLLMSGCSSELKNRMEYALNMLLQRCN

Serine/threonine-protein kinase MRCK beta (Homo sapiens), sequence (Q9Y5S2 whole entry): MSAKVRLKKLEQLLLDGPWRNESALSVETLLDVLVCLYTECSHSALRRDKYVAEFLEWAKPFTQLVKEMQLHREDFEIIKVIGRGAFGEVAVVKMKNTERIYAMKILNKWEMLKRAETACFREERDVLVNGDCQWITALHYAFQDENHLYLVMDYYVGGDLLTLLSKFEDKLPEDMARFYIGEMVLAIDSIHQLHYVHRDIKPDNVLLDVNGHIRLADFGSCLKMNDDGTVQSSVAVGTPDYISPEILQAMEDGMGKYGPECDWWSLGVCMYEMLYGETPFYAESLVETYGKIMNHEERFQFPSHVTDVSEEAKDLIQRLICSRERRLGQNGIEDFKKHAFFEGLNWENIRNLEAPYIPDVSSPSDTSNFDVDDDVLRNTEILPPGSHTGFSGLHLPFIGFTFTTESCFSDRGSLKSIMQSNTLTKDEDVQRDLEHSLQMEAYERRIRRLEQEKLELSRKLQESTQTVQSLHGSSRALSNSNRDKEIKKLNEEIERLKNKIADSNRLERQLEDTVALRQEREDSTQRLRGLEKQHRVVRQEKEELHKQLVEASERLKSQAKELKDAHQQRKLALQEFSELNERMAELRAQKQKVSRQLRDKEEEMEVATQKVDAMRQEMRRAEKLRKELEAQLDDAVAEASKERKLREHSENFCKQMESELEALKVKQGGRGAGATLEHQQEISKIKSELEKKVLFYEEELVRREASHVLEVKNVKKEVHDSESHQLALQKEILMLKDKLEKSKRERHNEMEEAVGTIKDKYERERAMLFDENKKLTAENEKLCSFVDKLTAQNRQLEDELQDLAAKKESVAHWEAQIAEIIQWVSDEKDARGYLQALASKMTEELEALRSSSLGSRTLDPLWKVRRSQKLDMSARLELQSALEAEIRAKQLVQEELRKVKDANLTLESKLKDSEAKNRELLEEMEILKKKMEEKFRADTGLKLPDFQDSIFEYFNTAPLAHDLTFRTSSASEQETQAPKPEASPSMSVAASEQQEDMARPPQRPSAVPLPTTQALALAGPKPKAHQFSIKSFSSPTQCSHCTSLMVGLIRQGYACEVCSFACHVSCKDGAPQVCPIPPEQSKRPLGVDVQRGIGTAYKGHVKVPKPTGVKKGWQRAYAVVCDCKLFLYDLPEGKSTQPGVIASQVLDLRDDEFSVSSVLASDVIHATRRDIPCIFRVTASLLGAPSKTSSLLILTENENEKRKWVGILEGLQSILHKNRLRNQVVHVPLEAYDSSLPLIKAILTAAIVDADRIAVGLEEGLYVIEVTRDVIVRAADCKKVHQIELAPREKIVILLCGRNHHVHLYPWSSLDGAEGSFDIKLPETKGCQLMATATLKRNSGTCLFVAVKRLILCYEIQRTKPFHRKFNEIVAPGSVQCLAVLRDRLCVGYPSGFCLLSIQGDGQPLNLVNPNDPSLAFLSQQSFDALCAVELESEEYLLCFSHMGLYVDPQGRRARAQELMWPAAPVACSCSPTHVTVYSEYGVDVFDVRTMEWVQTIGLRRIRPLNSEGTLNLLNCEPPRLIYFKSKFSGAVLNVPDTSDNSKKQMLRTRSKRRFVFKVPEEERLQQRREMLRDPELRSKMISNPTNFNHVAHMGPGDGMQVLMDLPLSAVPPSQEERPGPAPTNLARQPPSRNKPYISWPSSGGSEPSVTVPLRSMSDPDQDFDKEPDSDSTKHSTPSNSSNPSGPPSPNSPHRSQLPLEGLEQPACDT
Ribosomal protein S6 kinase alpha-1 (Homo sapiens), sequence (Q15418 whole entry): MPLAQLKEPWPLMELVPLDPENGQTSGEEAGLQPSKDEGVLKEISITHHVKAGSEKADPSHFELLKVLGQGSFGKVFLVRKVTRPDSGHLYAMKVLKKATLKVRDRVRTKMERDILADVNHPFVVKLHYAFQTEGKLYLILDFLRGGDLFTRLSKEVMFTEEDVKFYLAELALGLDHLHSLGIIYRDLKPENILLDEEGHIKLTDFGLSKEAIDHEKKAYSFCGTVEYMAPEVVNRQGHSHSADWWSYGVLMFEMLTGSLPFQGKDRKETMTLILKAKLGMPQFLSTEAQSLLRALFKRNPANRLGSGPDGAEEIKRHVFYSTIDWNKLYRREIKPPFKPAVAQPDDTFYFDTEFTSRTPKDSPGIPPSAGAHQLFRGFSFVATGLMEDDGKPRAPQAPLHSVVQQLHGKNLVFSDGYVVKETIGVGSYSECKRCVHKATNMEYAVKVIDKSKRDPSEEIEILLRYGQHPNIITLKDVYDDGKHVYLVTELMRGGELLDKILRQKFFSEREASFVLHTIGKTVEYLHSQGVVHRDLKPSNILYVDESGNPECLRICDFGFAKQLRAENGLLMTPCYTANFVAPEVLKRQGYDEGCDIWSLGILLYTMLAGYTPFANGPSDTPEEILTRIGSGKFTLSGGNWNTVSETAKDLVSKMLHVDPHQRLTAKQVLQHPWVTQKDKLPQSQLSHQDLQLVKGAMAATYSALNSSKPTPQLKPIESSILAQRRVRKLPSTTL
Serine/threonine-protein kinase 24 (Homo sapiens), sequence (Q9Y6E0 whole entry, looked up): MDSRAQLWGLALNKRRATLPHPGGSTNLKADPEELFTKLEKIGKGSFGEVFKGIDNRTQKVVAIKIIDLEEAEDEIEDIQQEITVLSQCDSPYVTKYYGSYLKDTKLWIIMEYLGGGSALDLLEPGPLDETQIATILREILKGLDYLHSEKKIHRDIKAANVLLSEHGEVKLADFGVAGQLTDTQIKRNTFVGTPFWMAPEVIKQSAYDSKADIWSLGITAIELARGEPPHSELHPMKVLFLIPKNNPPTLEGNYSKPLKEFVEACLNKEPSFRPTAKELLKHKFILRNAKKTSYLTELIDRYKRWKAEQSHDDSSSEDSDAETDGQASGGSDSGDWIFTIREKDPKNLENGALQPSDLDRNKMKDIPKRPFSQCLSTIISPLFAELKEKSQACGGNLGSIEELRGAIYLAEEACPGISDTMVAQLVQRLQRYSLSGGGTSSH

## COc1cc2c(Oc3ccc(-c4nc5ccccc5s4)cc3)ncnc2cc1OCCCN1CCN(C)CC1
[1]
  residual activity: 96%
[2]
  residual activity: 103%
[3]
  residual activity: 110%
[4]
  residual activity: 94%
[5]
  residual activity: 90%
[6]
  residual activity: 85%
[7]
  residual activity: 81%
[8]
  residual activity: 89%

## COc1cc2c(Oc3ccc(-c4nc5ccccc5s4)cc3F)ncnc2cc1OCCCN1CCN(C)CC1
[1]
  residual activity: 96%
[2]
  residual activity: 104%
[3]
  residual activity: 102%
[4]
  residual activity: 89%
[5]
  residual activity: 101%
[6]
  residual activity: 97%
[7]
  residual activity: 86%
[8]
  residual activity: 89%

## COc1cc2c(Oc3ccc(-c4nc5ccccc5s4)cc3)ncnc2cc1OCCCN1CCCC1
[1]
  residual activity: 90%
[2]
  residual activity: 98%
[3]
  residual activity: 82%
[4]
  residual activity: 87%
[5]
  residual activity: 102%
[6]
  residual activity: 107%
[7]
  residual activity: 79%
[8]
  residual activity: 108%
